Assay results taken from ChEMBL document CHEMBL1157737, “Natural ortho-dihydroxyisoflavone derivatives from aged Korean fermented soybean paste as potent tyrosinase and melanin formation inhibitors” (Bioorg Med Chem Lett, 2010).

How the values were obtained:
[1] = test system: Melan-a; experiment: Inhibition of melanin formation in mouse Melan-a cells after 5 days by ELISA; assay type: functional, cell-based; settings: 120 h
[2] = Antioxidant activity assessed as superoxide radical scavenging activity after 2 mins by NBT reduction assay; assay type: functional
[3] = target: T1, Tyrosinase (Mus musculus, UniProt P11344); experiment: Inhibition of tyrosinase in mouse Melan-a cells by ELISA; assay type: cell-based
T1 sequence (P11344 whole entry): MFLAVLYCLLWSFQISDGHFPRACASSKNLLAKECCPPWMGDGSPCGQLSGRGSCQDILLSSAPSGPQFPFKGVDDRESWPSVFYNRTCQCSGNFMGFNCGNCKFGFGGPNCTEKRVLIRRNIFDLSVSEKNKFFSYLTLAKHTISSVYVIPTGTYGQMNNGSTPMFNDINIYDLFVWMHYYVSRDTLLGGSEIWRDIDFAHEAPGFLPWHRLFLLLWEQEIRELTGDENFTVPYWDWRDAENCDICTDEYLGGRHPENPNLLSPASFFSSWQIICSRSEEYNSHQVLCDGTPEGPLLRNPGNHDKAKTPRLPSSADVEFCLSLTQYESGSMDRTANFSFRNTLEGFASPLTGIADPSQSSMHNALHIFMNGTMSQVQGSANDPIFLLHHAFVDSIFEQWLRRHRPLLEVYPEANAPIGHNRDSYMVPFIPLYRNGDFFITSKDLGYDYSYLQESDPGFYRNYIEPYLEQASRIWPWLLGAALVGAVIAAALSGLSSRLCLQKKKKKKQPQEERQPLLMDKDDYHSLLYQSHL

Row | SMILES | IC50 [1] | IC50 [2] | IC50 [3]
1 | O=c1c(-c2ccc(O)cc2)coc2cc(O)c(O)cc12 | > 500 µM | > 500 µM | > 500 µM
2 | O=C1O[C@H]([C@@H](O)CO)C(O)=C1O [ASCORBIC ACID] | – | 65.1 µM | –
3 | O=c1c(-c2ccc(O)cc2)coc2cc(O)ccc12 [DAIDZEIN] | > 500 µM | > 500 µM | > 500 µM
4 | COc1cc2c(=O)c(-c3ccc(O)cc3)coc2cc1O [GLYCITEIN] | > 500 µM | > 500 µM | > 500 µM

Continued by falling IC50 [1], values first:

Row | IC50 [1] | IC50 [2] | IC50 [3] | SMILES
5 | 98 µM | – | – | OC[C@H]1O[C@@H](Oc2ccc(O)cc2)[C@H](O)[C@@H](O)[C@@H]1O [ARBUTIN]
6 | 57.8 µM | 489 µM | > 500 µM | O=c1c(-c2ccc(O)cc2)coc2cc(O)cc(O)c12 [GENISTEIN]
7 | 12.2 µM | 18.1 µM | 11.2 µM | O=c1c(-c2ccc(O)cc2)coc2c(O)c(O)ccc12
8 | 7.83 µM | 10.5 µM | 5.23 µM | O=c1c(-c2ccc(O)c(O)c2)coc2cc(O)ccc12
